Assay results as given in patent publication US20210198277A1, “AMINE-SUBSTITUTED ARYL OR HETEROARYL COMPOUNDS” (Epizyme, Inc., priority 2016, published 2021).

target: T1, EHMT2 (Homo sapiens, UniProt Q96KQ7); test: MDA-MB-231 H3K9me2 in-cell Western assay (EHMT2 ICW); format: cell-based; settings: Table III; MDA-MB-231 H3K9me2 in-cell Western; read-out: EHMT2 ICW (IC50 μM)
T1 construct: host or cells: MDA-MB-231
T1 sequence (Q96KQ7 1-1210): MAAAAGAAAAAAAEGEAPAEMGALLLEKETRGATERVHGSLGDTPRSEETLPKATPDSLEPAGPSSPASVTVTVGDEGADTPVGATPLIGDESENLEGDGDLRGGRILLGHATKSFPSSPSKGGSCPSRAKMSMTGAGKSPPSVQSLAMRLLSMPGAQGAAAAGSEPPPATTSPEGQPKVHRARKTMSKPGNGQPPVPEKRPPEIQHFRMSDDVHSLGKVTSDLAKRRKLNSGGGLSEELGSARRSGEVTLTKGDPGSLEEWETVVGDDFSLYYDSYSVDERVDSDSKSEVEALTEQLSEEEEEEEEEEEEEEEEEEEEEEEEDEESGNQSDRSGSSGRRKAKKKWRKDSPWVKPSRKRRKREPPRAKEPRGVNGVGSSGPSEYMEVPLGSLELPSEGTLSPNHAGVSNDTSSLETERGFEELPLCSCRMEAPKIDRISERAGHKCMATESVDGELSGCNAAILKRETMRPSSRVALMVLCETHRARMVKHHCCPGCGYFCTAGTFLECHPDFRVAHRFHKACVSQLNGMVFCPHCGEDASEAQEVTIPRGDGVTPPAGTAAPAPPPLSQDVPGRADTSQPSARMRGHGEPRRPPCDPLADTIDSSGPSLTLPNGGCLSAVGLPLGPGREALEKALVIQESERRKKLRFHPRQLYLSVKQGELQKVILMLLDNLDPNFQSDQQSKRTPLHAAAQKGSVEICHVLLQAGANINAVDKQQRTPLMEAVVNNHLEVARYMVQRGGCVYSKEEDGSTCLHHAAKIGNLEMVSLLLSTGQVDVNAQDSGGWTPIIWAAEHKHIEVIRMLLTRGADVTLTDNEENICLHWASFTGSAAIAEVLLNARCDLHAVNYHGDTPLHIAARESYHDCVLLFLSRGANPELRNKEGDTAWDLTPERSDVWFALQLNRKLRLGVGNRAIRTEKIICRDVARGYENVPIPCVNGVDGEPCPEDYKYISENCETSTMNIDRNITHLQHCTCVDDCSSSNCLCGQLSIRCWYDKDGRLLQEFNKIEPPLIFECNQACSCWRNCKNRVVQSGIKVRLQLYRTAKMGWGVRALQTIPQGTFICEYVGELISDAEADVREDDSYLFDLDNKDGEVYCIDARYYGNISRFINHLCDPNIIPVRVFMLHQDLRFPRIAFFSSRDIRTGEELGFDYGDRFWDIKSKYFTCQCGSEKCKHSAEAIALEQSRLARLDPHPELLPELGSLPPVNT
In short: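 Cells seeded at 3,000/well onto pre-dispensed compound; 30 min RT, then 48 h 37 °C/5% CO2. PFA fix, block, α-H3K9me2 1:800 o/n 4 °C, 800CW secondary + DRAQ5. Odyssey scan 700/800 nm; ratio → % inhibition → 4-parameter IC50.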

SMILES	IC50 [µM]
CNc1cc(C)nc(Nc2ccc(OC)c(O[C@H]3C[C@H](N(C)C)C3)c2)n1 (single isomer, unassigned) [Compound 329, N^2-(3-((1r,3r)-3-(dimethylamino)cyclobutoxy)-4-methoxyphenyl)-N^4,6-dimethylpyrimidine-2,4-diamine]	> 10
COc1ccc(Nc2ccc3cnn(C)c3n2)cc1OCCCN1CCCC1 [Compound 257, N-(4-methoxy-3-(3-(pyrrolidin-1-yl)propoxy)phenyl)-1-methyl-1H-pyrazolo[3,4-b]pyridin-6-amine]	> 10
COc1ccc(Nc2cc3c(cn2)ncn3C)cc1OCCCN1CCCC1 [Compound 258, N-(4-methoxy-3-(3-(pyrrolidin-1-yl)propoxy)phenyl)-1-methyl-1H-imidazo[4,5-c]pyridin-6-amine]	> 10
COc1ccc(Nc2nccc(NCC3CCOCC3)n2)cc1OC1CCC2(CC1)CCN(C)C2 (stereo not shown) [Compound 259, N^2-(4-methoxy-3-((2-methyl-2-azaspiro[4.5]decan-8-yl)oxy)phenyl)-N^4-((tetrahydro-2H-pyran-4-yl)methyl)pyrimidine-2,4-diamine]	> 10
COc1ccc(Nc2nccc(NCC3CCOCC3)n2)cc1OC1CCC2(CC1)CN(C)C2 [Compound 260, N^2-(4-methoxy-3-((2-methyl-2-azaspiro[3.5]nonan-7-yl)oxy)phenyl)-N^4-((tetrahydro-2H-pyran-4-yl)methyl)pyrimidine-2,4-diamine]	> 10
CNc1cnnc(Nc2cc(OCCCN3CCCC3)c(OC)cn2)c1 [Compound 322, N^3-(5-methoxy-4-(3-(pyrrolidin-1-yl)propoxy)pyridin-2-yl)-N^5-methylpyridazine-3,5-diamine]	0.1 to 1
CNc1cc(Nc2cc(OCCCN3CCCC3)c(OC)cn2)cnn1 [Compound 323, N^5-(5-methoxy-4-(3-(pyrrolidin-1-yl)propoxy)pyridin-2-yl)-N^3-methylpyridazine-3,5-diamine]	> 10
CNc1cc(Nc2cc(OCCCN3CCCC3)c(OC)cn2)ncn1 [Compound 324, N^4-(5-methoxy-4-(3-(pyrrolidin-1-yl)propoxy)pyridin-2-yl)-N^6-methylpyrimidine-4,6-diamine]	> 10
CNc1cc(Nc2cc(OCCCN3CCCC3)c(OC)cn2)nc(C)n1 [Compound 325, N^4-(5-methoxy-4-(3-(pyrrolidin-1-yl)propoxy)pyridin-2-yl)-N^6,2-dimethylpyrimidine-4,6-diamine]	1 to 10
COc1cnc(Nc2nc(C)nc3[nH]ccc23)cc1OCCCN1CCCC1 [Compound 326, N-(5-methoxy-4-(3-(pyrrolidin-1-yl)propoxy)pyridin-2-yl)-2-methyl-7H-pyrrolo[2,3-d]pyrimidin-4-amine]	1 to 10
CNc1nc(Nc2ccc(OC)c(OCCCN3CCCC3)c2)nc2c1CCC2 [Compound 328, N^2-(4-methoxy-3-(3-(pyrrolidin-1-yl)propoxy)phenyl)-N^4-methyl-6,7-dihydro-5H-cyclopenta[d]pyrimidine-2,4-diamine]	1 to 10
CNc1cc(C)nc(Nc2ccc(OC)c(OC[C@H]3C[C@H](N(C)C)C3)c2)n1 [Compound 330]	> 10
CNc1cc(C)nc(Nc2ccc(OC)c(O[C@H]3C[C@H](CN(C)C)C3)c2)n1 [Compound 331, N^2-(3-((1r,3r)-3-((dimethylamino)methyl)cyclobutoxy)-4-methoxyphenyl)-N^4,6-dimethylpyrimidine-2,4-diamine]	> 10
CNc1cc(C)nc(Nc2cnc(OC)c(OCCCN3CCCC3)c2)n1 [Compound 332, N^2-(6-methoxy-5-(3-(pyrrolidin-1-yl)propoxy)pyridin-3-yl)-N^4,6-dimethylpyrimidine-2,4-diamine]	0.1 to 1
CCn1nc(Nc2nccc3[nH]ccc23)cc1COCCN1CCCC1 [Compound 333]	> 10
COc1cnc(Nc2ccnc3[nH]ccc23)cc1OCCCN1CCCC1 [Compound 335, N-(5-methoxy-4-(3-(pyrrolidin-1-yl)propoxy)pyridine-2-yl)-1H-pyrrolo[2,3-b]pyridin-4-amine]	1 to 10
COc1cnc(Nc2cc(C)nc3[nH]ccc23)cc1OCCCN1CCCC1 [Compound 336, N-(5-methoxy-4-(3-(pyrrolidin-1-yl)propoxy)pyridin-2-yl)-6-methyl-1H-pyrrolo[2,3-b]pyridin-4-amine]	1 to 10
COc1ccc(Nc2nc(C)c(F)c(NC(C)C)n2)cc1OCCCN1CCCC1 [Compound 337]	1 to 10

SMILES	IC50 [µM]
COc1ccc(Nc2nccc(-n3nc(C)cc3C)n2)cc1OCCCN1CCCC1 [Compound 338]	> 10
CNCc1cnc(Nc2ccc(OC)c(OCCCN3CCCC3)c2)nc1 [Compound 339]	> 10
COc1ccc(Nc2ccnc(NCC3CCN(C(C)=O)CC3)n2)cc1OCCCN1CCCC1 [Compound 340]	> 10
COc1ccc(Nc2ccc3cnn(C)c3c2)cc1OCCCN1CCCC1 [Compound 341]	> 10
COc1ccc(Nc2ccc3ncn(C)c3n2)cc1OCCCN1CCCC1 [Compound 342]	> 10
COc1ccc(Nc2ncc3ncn(C)c3n2)cc1OCCCN1CCCC1 [Compound 343]	> 10
COc1ccc(Nc2cccc3ncnn23)cc1OCCCN1CCCC1 [Compound 344]	> 10
COc1ccc(Nc2ccc3nn(C)cc3c2)cc1OCCCN1CCCC1 [Compound 345]	> 10
COc1ccc(Nc2cccc3cn(C)nc23)cc1OCCCN1CCCC1 [Compound 346]	> 10
COc1ccc(Nc2ccc3ncc(C)n3n2)cc1OCCCN1CCCC1 [Compound 347]	> 10
COc1ccc(Nc2nccc(-c3cnn(C)c3)n2)cc1OCCCN1CCCC1 [Compound 348]	> 10
COc1ccc(Nc2nccc(Nc3cccc(F)c3)n2)cc1OCCCN1CCCC1 [Compound 349]	1 to 10
COc1ccc(Nc2nccc(NCC3CCOCC3)n2)cc1NCCCN1CCCC1 [Compound 350]	1 to 10
COc1ccc(OCCCN2CCCC2)cc1Nc1nccc(NCC2CCOCC2)n1 [Compound 351]	> 10
COc1ccc(NCCCN2CCCC2)cc1Nc1nccc(NCC2CCOCC2)n1 [Compound 352]	> 10
CNc1ccnc(Nc2ccc(OC)c(OCCCN3CC[C@@H](F)C3)c2)n1 [Compound 353]	1 to 10
CNc1ccnc(Nc2ccc(OC)c(OCCCN3CC(F)C3)c2)n1 [Compound 354]	1 to 10

same assay, conditions: Table VI; read-out: EHMT2 ICW IC50

SMILES	IC50 [µM]
CNc1cc2nccn2c(Nc2cc(OCCCN3CCCC3)c(OC)cn2)n1 [Compound 611]	1 to 10
CCN1CC(COc2cc(Nc3nc(C)cc4[nH]ccc34)ncc2OC)C1 [Compound 613]	1 to 10
CNc1cc(C)nc(Nc2cc(OCCCN3CCCC3)c3nc(C)cn3c2)n1 [Compound 616]	1 to 10
CNc1cc(C)nc(Nc2cc(OCCCN3CCCC3)c3nccn3c2)n1 [Compound 618]	> 10
COc1cc2c(C3CCN(C)CC3)cc(C#N)nc2cc1OCCCN1CCCC1 [Compound 790]	1 to 10
CNc1cc(C)nc(Nc2cc(OCCCN3CCCC3)c3oncc3c2)n1 [Compound 793]	> 10
COc1ccc(Nc2nn(C)c3cnccc23)cc1OCCCN1CCCC1 [Compound 794]	> 10
COc1cnc(Nc2nn(C)c3cnccc23)cc1OCCCN1CCCC1 [Compound 795]	> 10
COc1ccc(Nc2cc(C)[nH]n2)cc1OCCCN1CCCC1 [Compound 796]	> 10
COc1ccc(Nc2cc(C)n(C)n2)cc1OCCCN1CCCC1 [Compound 797]	> 10
CNc1cc(C)nc(Nc2cnc(OC)c(OC[C@@H]3CCN(C4CCC4)C3)c2)n1 [Compound 798]	0.1 to 1
COc1ccc(Nc2nc(C)cc(NC(C)C)n2)cc1OC[C@@H]1CCNC1 [Compound 800]	0.1 to 1
COc1cnc(Nc2nccc3nccn23)cc1OC[C@@H]1CCNC1 [Compound 801]	> 10
CNc1cc(C2CCOCC2)c2cc(OC)c(OC[C@@H]3CCNC3)cc2n1 [Compound 802]	1 to 10
CNc1cc(C2CCOCC2)c2cc(OC)c(OC[C@@H]3CCN(C)C3)cc2n1 [Compound 803]	1 to 10
COc1cc(NC2CCOCC2)ncc1OCC1CCNC1 (stereo not shown) [Compound 806]	> 10
COc1cc(N(C)C2CCOCC2)ncc1OCC1CCNC1 (stereo not shown) [Compound 808]	> 10
